Measured values from patent publication US6815443B2, “5-Amino-1-pentene-3-ol substituted derivatives” (Gruenenthal GmbH, priority 2000, dated 2004).

system: gabapentin binding site; assay: gabapentin binding assay (displacement of gabapentin from its binding site); settings: not given
Protocol: Gabapentin is used in the binding assay in order to investigate the binding and affinities of the selected compounds. The affinity of the compounds according to the invention is measured via the displacement of gabapentin from its binding site.

Row | SMILES | % Inhibition gabapentin, 10 μmole [%]
1 | CC(=Cc1ccccc1)C(O)(c1ccccc1)C(C)CN(C)C (centres unmarked) [Example 120, 5-dimethylamino-2,4-dimethyl-1,3-diphenyl-pent-1-en-3-ol] | 37
2 | CC(=Cc1ccccc1)C(O)(Cc1cccc(C)c1)C(C)CN(C)C (centres unmarked) [Example 152, 5-dimethylamino-2,4-dimethyl-3-(3-methylbenzyl)-1-phenyl-pent-1-en-3-ol] | 30
3 | CC(=Cc1ccccc1)C(O)(Cc1cccc(Cl)c1)C(C)CN(C)C (centres unmarked) [Example 156, 3-(3-chlorobenzyl)-5-dimethylamino-2,4-dimethyl-1-phenyl-pent-1-en-3-ol] | 46
4 | COc1cccc(CC(O)(C(C)=Cc2ccc(F)cc2)C(C)CN(C)C)c1 (centres unmarked) [Example 184, 5-dimethylamino-1-(4-fluorophenyl)-3-(3-methoxybenzyl)-2,4-dimethyl-pent-1-en-3-ol] | 47
5 | COc1cccc(CC(O)(C(C)=Cc2ccc(Cl)cc2)C(C)CN(C)C)c1 (centres unmarked) [Example 223, 1-(4-chlorophenyl)-5-dimethylamino-3-(3-methoxybenzyl)-2,4-dimethyl-pent-1-en-3-ol] | 40
6 | COc1cccc(C=C2CCCCC(CN(C)C)C2(O)c2ccc(Cl)cc2)c1 (centres unmarked) [Example 353, 1-(4-chlorophenyl)-2-dimethylaminomethyl-7-(3-methoxy-benzylidene)-cycloheptanol] | 44
7 | COc1ccc(C2(O)C(=Cc3cccc(OC)c3)CCCCC2CN(C)C)cc1 (centres unmarked) [Example 369, 2-dimethylaminomethyl-7-(3-methoxybenzylidene)-1-(4-methoxyphenyl)-cycloheptanol] | 43

system: phenylquinone-induced writhing in male NMRI mice; assay: phenylquinone-induced writhing test in mice; type: in vivo; settings: 2.15 mg/kg
Protocol: The investigation of the analgesic efficacy was carried out according to the phenylquinone-induced writhing test in mice (as modified by I. C. Hendershot and J. Forsaith J. Pharmacol. Exp. Ther. 1959 125, 237-240). For this purpose male NMRI mice weighing 25 to 30 g were used. Groups of 10 animals per substance dose received, 10 minutes after intravenous administration of the test substances, 0.3 ml/mouse of a 0.02% aqueous solution of phenylquinone (phenyl benzoquinone, from Sigma, Deisenhofen; solution prepared by addition of 5% of ethanol and storage in a water bath at 45° C.) applied intraperitoneally. The animals were placed individually in observation cages. The number of pain-induced stretching movements (so-called writhing reactions=contortion of the body accompanied by stretching of the rear extremities) was counted using a push-button counter 5 to 20 minutes after administration of the phenylquinone. Animals that had received only physiological saline served as controls. The number of responding animals was determined for some of the examples.

Row | SMILES | Responding Animals/Control Animals (Writhing IV)
8 | CN(C)CC1CCCCC(=Cc2ccccc2)C1(O)c1cccc(O)c1.Cl (centres unmarked) [Example 407, 2-benzylidene-7-dimethylaminomethyl-1-(3-hydroxyphenyl)-cycloheptanol, hydrochloride] | 6/10 (2.15 mg/kg)

same assay, conditions: 10 mg/kg

Row | SMILES | Responding Animals/Control Animals (Writhing IV)
9 | COc1cccc(C=C2CCCCC(CN(C)C)C2(O)c2cccc(O)c2)c1.Cl (centres unmarked) [Example 408, 2-dimethylaminomethyl-1-(3-hydroxyphenyl)-7-(3-methoxy-benzylidene)-cycloheptanol, hydrochloride] | 9/10 (10 mg/kg)
10 | COc1cccc(C2(O)C(=Cc3ccccc3)CCCCC2CN(C)C)c1.Cl (centres unmarked) [Example 409, 2-benzylidene-7-dimethylaminomethyl-1-(3-methoxyphenyl)-cycloheptanol, hydrochloride] | 5/10 (10 mg/kg)
11 | CC(=Cc1ccccc1)C(O)(c1cccc(O)c1)C(C)CCN(C)C.Cl (centres unmarked) [Example 410, 3-[1-(2-dimethylaminomethyl-1-methylethyl)-1-hydroxy-2-methyl-3-phenyl-allyl]-phenol, hydrochloride] | 5/10 (10 mg/kg)
12 | CC(=Cc1ccccc1)C(O)(Cc1ccc(Cl)cc1)C(C)CN(C)C.Cl (centres unmarked) [Example 411, 3-(4-chlorobenzyl)-5-dimethylamino-2,4-dimethyl-1-phenyl-pent-1-en-3-ol, hydrochloride] | 3/10 (10 mg/kg)
13 | COc1cccc(C(O)(C(C)=Cc2ccccc2)C(C)CN(C)C)c1.Cl (centres unmarked) [Example 412, 5-dimethylamino-3-(3-methoxyphenyl)-2,4-dimethyl-1-phenyl-pent-1-en-3-ol, hydrochloride] | 9/10 (10 mg/kg)
14 | CN(C)CC1CCCC(=Cc2ccccc2)C1(O)c1cccc(O)c1.Cl (centres unmarked) [Example 413, 3-(2-benzylidene-6-dimethylaminomethyl-1-hydroxycyclohexyl)-phenol, hydrochloride] | 4/10 (10 mg/kg)
